Consider 24 compounds from US11976075B2, “Inhibitors of the MYST family of lysine acetyl transferases” (Isosterix, Inc., priority 2022, dated 2024).

The test system of experiment [1] is ZR-75-1. As to the kind of experiment: In Vitro Cancer Cell Assay (cell viability, Cell Titer Glow, 10 days). In kind it is cell-based. As to conditions: Homo sapiens; ZR-75-1 cells; Table 2. As to the method: ZR-75-1 and T47D are breast cancer cell lines containing high KAT6A protein expression. Proliferation of these cell lines are inhibited upon treatment with a KAT6A inhibitor. Cell line MCF7 is used as a negative control. MCF7 cells have a low KAT6A protein expression and are not growth inhibited upon treatment with KAT6A inhibitors. WM-1119 is used as a positive control.
1500 cells are seeded per well and incubated overnight at 37° C. and 5% CO2. Cells are treated after 24 hours with a compound (stock solution, 10 mM in DMSO) with 9-10 dilutions and a final DMSO concentration of 0.5%. […] Test compounds are tested like WM-1119. Plates are incubated at 37° C. and 5% CO2 for 10 days. Media is replenished after every alternate day. At day 10, Cell Titer Glow is added to the wells and luminescence is recorded after 10 min incubation. Data are normalized to 100% with DMSO control and subtracting media blank. Cell viability is of the test compounds is measured.
The above procedure can be followed for determining activity in additional cell lines, for example, ZR-75-1, T47D, CHAGOK1 and other cell lines that have high expression of KAT6A. The number of cells used will be optimized based on growth rate of the individual cell lines.

Experiment [2] has as its target T1, Recombinant KAT6A/MOZ (488-778) protein (Homo sapiens, UniProt Q92794).
T1 construct: Recombinant KAT6A/MOZ (488-778) protein (Active motif, Catalog #81223); purchased Active Motif 81223
As to the kind of experiment: Kat6a AlphaLISA Inhibition Screening Assay. The format is biochemical. The essentials: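 Recombinant KAT6A (488-778), 25 nM, was preincubated with compound (10-point dose response) for 60 or 10 min. It then reacted 120 min at room temperature with 200 nM biotin-H3(1-21) peptide and 400 nM acetyl-CoA, pH 8.0, with 330 nM TSA present. Acetylation was detected by AlphaLISA (anti-acetyl-lysine acceptor, streptavidin donor beads).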

[3] abbreviates: 60′ pre-incubation, Table 2, read-out: Kat6A biochemical assay: IC50.
Setting [4] is: 60′ pre-incubation, Table 3, read-out: Kat6A Biochemical assay: IC50.
Where [5] appears, read: 10′ pre-incubation, Table 2, read-out: Kat6A biochemical assay: IC50.

Where two headings read alike, the source gives them in different places.

T1 sequence (Q92794 488-778): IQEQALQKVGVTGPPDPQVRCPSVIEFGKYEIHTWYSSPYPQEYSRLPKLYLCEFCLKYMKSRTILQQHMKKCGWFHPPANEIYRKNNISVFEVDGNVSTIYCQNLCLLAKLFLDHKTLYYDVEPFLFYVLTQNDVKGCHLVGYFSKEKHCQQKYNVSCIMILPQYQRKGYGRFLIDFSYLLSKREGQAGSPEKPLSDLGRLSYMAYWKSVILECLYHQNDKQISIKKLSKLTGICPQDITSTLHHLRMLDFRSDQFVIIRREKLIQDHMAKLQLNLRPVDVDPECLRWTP

In turn, `C#CC(=O)N1Cc2cnn(Cc3cc(OC)c4c(NS(=O)(=O)CC5CCCCC5)noc4c3)c2C1` [Synthetic Example 30A, 1-cyclohexyl-N-(4-methoxy-6-((5-propioloyl-5,6-dihydropyrrolo[3,4-c]pyrazol-1(4H)-yl)methyl)benzo[d]isoxazol-3-yl)methanesulfonamide] gave a half-maximal effective concentration (EC50) in experiment [1] not above 10 µM. Further, the IC50 in experiment [2] (setting [3]) is not above 10 µM.
On to `C#CC(=O)NCc1cnn(Cc2cc(OC3CC3)c3c(NS(=O)(=O)c4ccccc4OC)noc3c2)c1` [Synthetic Example 43, N-((1-((4-cyclopropoxy-3-((2-methoxyphenyl)sulfonamido)benzo[d]isoxazol-6-yl)methyl)-1H-pyrazol-4-yl)methyl)propiolamide], for which, in experiment [1], the EC50 was not above 10 µM. For the same compound, the IC50 in experiment [2] (setting [3]) is not above 10 µM.
In experiment [1], `C#CC(=O)N1Cc2cnn(Cc3cc(OC)c4c(NS(=O)(=O)c5c(OC)cccc5OC)noc4c3)c2C1` [Synthetic Example 25A, 2,6-dimethoxy-N-(4-methoxy-6-((5-propioloyl-5,6-dihydropyrrolo[3,4-c]pyrazol-1(4H)-yl)methyl)benzo[d]isoxazol-3-yl)benzenesulfonamide] returned an EC50 not above 10 µM. Also, in experiment [2] (setting [3]), the IC50 was not above 10 µM.
Turning to `C#CC(=O)NCc1cnn(Cc2cc(OC)c3c(NS(=O)(=O)c4ccccc4C(=O)O)noc3c2)c1` [Synthetic Example 37, 2-(N-(4-methoxy-6-((4-(propiolamidomethyl)-1H-pyrazol-1-yl)methyl)benzo[d]isoxazol-3-yl)sulfamoyl)benzoic acid], in experiment [1], the EC50 was not above 10 µM. In addition, the IC50 in experiment [2] (setting [3]) was not above 10 µM.
Regarding `C=CS(=O)(=O)NCc1cnn(Cc2cc(OC)c3c(NS(=O)(=O)c4c(OC)cccc4OC)noc3c2)c1` [Synthetic Example 33, 2,6-dimethoxy-N-(4-methoxy-6-((4-(vinylsulfonamidomethyl)-1H-pyrazol-1-yl)methyl)benzo[d]isoxazol-3-yl)benzenesulfonamide], the EC50 in experiment [1] is not above 10 µM. Besides, in experiment [2] (setting [3]), the IC50 is not above 10 µM.
Take `C#CC(=O)N1CCN(c2ncc(-c3cc(OC)c4c(NS(=O)(=O)c5c(OC)cccc5OC)noc4c3)s2)CC1` [compound 106, 2,6-dimethoxy-N-(4-methoxy-6-(2-(4-propioloylpiperazin-1-yl)thiazol-5-yl)benzo[d]isoxazol-3-yl) benzenesulfonamide]: the IC50 in experiment [2] (setting [4]) was not above 10 µM.
For the compound `C#CC(=O)NCc1cnn(Cc2cc(OC)c3c(NS(=O)(=O)c4ccc(C(=O)NC)cc4OC)noc3c2)c1` [Synthetic Example 46, 3-methoxy-4-(N-(4-methoxy-6-((4-(propiolamidomethyl)-1H-pyrazol-1-yl)methyl)benzo[d]isoxazol-3-yl)sulfamoyl)-N-methylbenzamide], in experiment [2] (setting [3]), the IC50 was not above 10 µM.
With `COc1ccccc1S(=O)(=O)Nc1noc2cc(Cn3cc(CNS(=O)(=O)c4c(F)c(F)c(F)c(F)c4F)cn3)cc(OC)c12` [compound 70, 2,3,4,5,6-pentafluoro-N-((1-((4-methoxy-3-((2-methoxyphenyl)sulfonamido)benzo[d]isoxazol-6-yl)methyl)-1H-pyrazol-4-yl)methyl)benzenesulfonamide], the IC50 in experiment [2] (setting [3]) is not above 10 µM.
Still for that read-out and setting: then `C=CC(=O)N1CCN(c2cccc(-c3cc(OC)c4c(NS(=O)(=O)c5c(OC)cccc5OC)noc4c3)c2)CC1` [Synthetic Example 56, N-(6-(3-(4-acryloylpiperazin-1-yl)phenyl)-4-methoxybenzo[d]isoxazol-3-yl)-2,6-dimethoxybenzenesulfonamide], with not above 10 µM.
In the case of `C#CC(=O)N1CCN(c2cc(O)cc(-c3cc(OC)c4c(NS(=O)(=O)c5c(OC)cccc5OC)noc4c3)c2)CC1` [compound 115, N-(6-(3-hydroxy-5-(4-propioloylpiperazin-1-yl)phenyl)-4-methoxybenzo[d]isoxazol-3-yl)-2,6-dimethoxybenzenesulfonamide], the IC50 in experiment [2] (setting [4]) was not above 10 µM.
Turning to `COc1ccccc1S(=O)(=O)Nc1noc2cc(CN3CCC(C(=O)NCC#N)C3)cc(OC)c12` (centres unmarked) [Synthetic Example 67, N-(cyanomethyl)-1-((4-methoxy-3-((2-methoxyphenyl)sulfonamido)benzo[d]isoxazol-6-yl)methyl) pyrrolidine-3-carboxamide], the IC50 in experiment [2] (setting [3]) was more than 10 µM.
On to `C#CC(=O)NCc1cnn(Cc2cc(OC)c3c(NS(=O)(=O)c4cc(CC)ccc4OC)noc3c2)c1` [compound 69, N-((1-((3-((5-ethyl-2-methoxyphenyl)sulfonamido)-4-methoxybenzo[d]isoxazol-6-yl)methyl)-1H-pyrazol-4-yl)methyl) propiolamide], for which the IC50 in experiment [2] (setting [3]) was not above 10 µM.
Consider `C#CC(=O)N1CCN(c2cccc(-c3cc(OC)c4c(NS(=O)(=O)c5c(OC)cccc5OC)noc4c3)c2)CC1` [compound 71, 2,6-dimethoxy-N-(4-methoxy-6-(3-(4-propioloylpiperazin-1-yl)phenyl)benzo[d]isoxazol-3-yl) benzenesulfonamide], for which the IC50 in experiment [2] (setting [3]) was not above 10 µM.
Same read-out and setting: then `C=CC(=O)N1Cc2cnn(Cc3cc(OC)c4c(NS(=O)(=O)CC5CCCCC5)noc4c3)c2C1` [Synthetic Example 29A, N-(6-((5-acryloyl-5,6-dihydropyrrolo[3,4-c]pyrazol-1(4H)-yl)methyl)-4-methoxybenzo[d]isoxazol-3-yl)-1-cyclohexylmethanesulfonamide], with not above 10 µM.
Regarding `C=CS(=O)(=O)NCC(=O)NCc1cnn(Cc2cc(OC)c3c(NS(=O)(=O)c4cc(CC)ccc4OC)noc3c2)c1` [compound 93, N-((1-((3-((5-ethyl-2-methoxyphenyl)sulfonamido)-4-methoxybenzo[d]isoxazol-6-yl)methyl)-1H-pyrazol-4-yl)methyl)-2-(vinylsulfonamido) acetamide], the IC50 in experiment [2] (setting [4]) was not above 10 µM.
As for `C#CC(=O)NCc1ccc2cc(C(=O)NS(=O)(=O)c3ccccc3F)oc2c1` [Synthetic Example 11, N-((2-fluorophenyl)sulfonyl)-6-(propiolamidomethyl)benzofuran-2-carboxamide], the IC50 in experiment [2] (setting [5]) was in the range of 20 to 50 µM.
Turning to `C=CS(=O)(=O)N1CCN(c2cccc(-c3cc(OC)c4c(NS(=O)(=O)c5c(OC)cccc5OC)noc4c3)c2)CC1` [compound 72, 2,6-dimethoxy-N-(4-methoxy-6-(3-(4-(vinylsulfonyl)piperazin-1-yl)phenyl)benzo[d]isoxazol-3-yl) benzenesulfonamide], the IC50 in experiment [2] (setting [4]) is not above 10 µM.
As for `C#CC(=O)N1CCN(c2nc(-c3cc(OC)c4c(NS(=O)(=O)c5c(OC)cccc5OC)noc4c3)cs2)CC1` [compound 97, 2,6-dimethoxy-N-(4-methoxy-6-(2-(4-propioloylpiperazin-1-yl)thiazol-4-yl)benzo[d]isoxazol-3-yl)benzenesulfonamide], the IC50 in experiment [2] (setting [4]) is not above 10 µM.
With `COc1cc(Cn2ncc3c2CNC3)cc2onc(NS(=O)(=O)CC3CCCCC3)c12` [Synthetic Example 28A, 1-cyclohexyl-N-(6-((5,6-dihydropyrrolo[3,4-c]pyrazol-1(4H)-yl)methyl)-4-methoxybenzo[d]isoxazol-3-yl)methanesulfonamide], in experiment [2] (setting [3]), the IC50 is not above 10 µM.
Take `C=CC(=O)N(C)Cc1cnn(Cc2cc(OC)c3c(NS(=O)(=O)c4ccccc4OC)noc3c2)c1` [Synthetic Example 47, N-((1-((4-methoxy-3-((2-methoxyphenyl)sulfonamido)benzo[d]isoxazol-6-yl)methyl)-1H-pyrazol-4-yl)methyl)-N-methylacrylamide]: the IC50 in experiment [2] (setting [3]) is not above 10 µM.
For `C=CC(=O)N1CCC(C(=O)NCc2ccc3cc(C(=O)NS(=O)(=O)c4ccccc4F)oc3c2)C1` (centres unmarked) [Synthetic Example 40, 1-acryloyl-N-((2-(((2-fluorophenyl)sulfonyl)carbamoyl)benzofuran-6-yl)methyl)pyrrolidine-3-carboxamide], the IC50 in experiment [2] (setting [5]) was more than 100 µM.
With `C=CC(=O)N1CCN(c2ccccc2-c2cc(OC)c3c(NS(=O)(=O)c4c(OC)cccc4OC)noc3c2)CC1` [Synthetic Example 58, N-(6-(2-(4-acryloylpiperazin-1-yl)phenyl)-4-methoxybenzo[d]isoxazol-3-yl)-2,6-dimethoxybenzenesulfonamide], in experiment [2] (setting [3]), the IC50 was not above 10 µM.
As for `C#CC(=O)N1CCN(C(=O)c2cnn(Cc3cc(OC)c4c(NS(=O)(=O)c5cc(CC)ccc5OC)noc4c3)c2)CC1` [compound 95, 5-ethyl-2-methoxy-N-(4-methoxy-6-((4-(4-propioloylpiperazine-1-carbonyl)-1H-pyrazol-1-yl)methyl)benzo[d]isoxazol-3-yl)benzenesulfonamide], in experiment [2] (setting [4]), the IC50 was not above 10 µM.
`COc1cc(Cn2cc3c(n2)CNC3)cc2onc(NS(=O)(=O)CC3CCCCC3)c12` [Synthetic Example 28B, 1-cyclohexyl-N-(6-((5,6-dihydropyrrolo[3,4-c]pyrazol-2(4H)-yl)methyl)-4-methoxybenzo[d]isoxazol-3-yl)methanesulfonamide]: the IC50 in experiment [2] (setting [3]) was in the range of 10 to 20 µM.
